Measurements taken from the kinase profiling compilation of Christmann-Franck et al. (2016).

Tests used:
Assay in all cases: Caliper, Mobility shift assay off-chip
AURKC (human) = AURKC (human) (UniProt Q9UQB9)
CAMK1 (human) = CAMK1 (human) (UniProt Q14012)
CAMK2D (human) = CAMK2D (human) (UniProt Q13557)
CDC7 (human) = CDC7 (human) (UniProt O00311)
CDK9 (human) = CDK9 (human) (UniProt P50750)
DYRK1B (human) = DYRK1B (human) (UniProt Q9Y463)
EEF2K (human) = EEF2K (human) (UniProt O00418)
EPHA5 (human) = EPHA5 (human) (UniProt P54756)
FGFR4 (human) = FGFR4 (human) (UniProt P22455)
GSG2 (human) = GSG2 (human) (UniProt Q8TF76)
IRAK1 (human) = IRAK1 (human) (UniProt P51617)
JAK3 JH1 JH2 (human) = JAK3 JH1 JH2 (human) (UniProt P52333)
MAPK11 (human) = MAPK11 (human) (UniProt Q15759)
MARK3 (human) = MARK3 (human) (UniProt P27448)
NEK1 (human) = NEK1 (human) (UniProt Q96PY6)
PAK6 (human) = PAK6 (human) (UniProt Q9NQU5)
PGK1 (human) = PGK1 (human) (UniProt P00558)
PHKG2 (human) = PHKG2 (human) (UniProt P15735)
PIM2 (human) = PIM2 (human) (UniProt Q9P1W9)
PIM3 (human) = PIM3 (human) (UniProt Q86V86)
PRKAA1 (human) = PRKAA1 (human) (UniProt Q13131)
PRKACG (human) = PRKACG (human) (UniProt P22612)
PRKCE (human) = PRKCE (human) (UniProt Q02156)
PRKCQ (human) = PRKCQ (human) (UniProt Q04759)
PRKD1 (human) = PRKD1 (human) (UniProt Q15139)
RPS6KA6 KD1 KD2 (human) = RPS6KA6 KD1 KD2 (human) (UniProt Q9UK32)
RPS6KB1 (human) = RPS6KB1 (human) (UniProt P23443)
STK38 (human) = STK38 (human) (UniProt Q15208)
TNIK (human) = TNIK (human) (UniProt Q9UKE5)
TSSK3 (human) = TSSK3 (human) (UniProt Q96PN8)
TYK2 JH1 JH2 (human) = TYK2 JH1 JH2 (human) (UniProt P29597)
TYRO3 (human) = TYRO3 (human) (UniProt Q06418)
FGFR2 (human) = FGFR2 (human) (UniProt P21802)

Chain of PRKCE (human) (Q02156 whole entry, looked up): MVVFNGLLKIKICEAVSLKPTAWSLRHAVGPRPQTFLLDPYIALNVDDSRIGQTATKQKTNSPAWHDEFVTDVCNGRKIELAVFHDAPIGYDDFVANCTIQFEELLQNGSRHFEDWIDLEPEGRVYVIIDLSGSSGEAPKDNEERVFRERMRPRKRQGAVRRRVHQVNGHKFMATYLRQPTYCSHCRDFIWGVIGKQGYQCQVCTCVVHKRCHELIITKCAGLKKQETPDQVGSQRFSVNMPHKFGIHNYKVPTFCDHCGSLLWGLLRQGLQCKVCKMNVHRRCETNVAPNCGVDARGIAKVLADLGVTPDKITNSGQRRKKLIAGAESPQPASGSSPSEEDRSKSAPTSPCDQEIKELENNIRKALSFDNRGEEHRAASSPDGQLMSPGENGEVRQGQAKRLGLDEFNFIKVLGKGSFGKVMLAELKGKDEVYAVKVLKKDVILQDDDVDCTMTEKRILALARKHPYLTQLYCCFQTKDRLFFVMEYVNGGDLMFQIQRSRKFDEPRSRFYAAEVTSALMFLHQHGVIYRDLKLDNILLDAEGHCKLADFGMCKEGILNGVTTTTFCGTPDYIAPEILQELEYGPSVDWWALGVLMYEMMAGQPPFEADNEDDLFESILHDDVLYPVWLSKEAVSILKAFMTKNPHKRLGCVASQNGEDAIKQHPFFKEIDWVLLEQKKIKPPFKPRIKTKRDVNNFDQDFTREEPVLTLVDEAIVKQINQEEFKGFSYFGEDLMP
Chain of CAMK2D (human) (Q13557 whole entry, looked up): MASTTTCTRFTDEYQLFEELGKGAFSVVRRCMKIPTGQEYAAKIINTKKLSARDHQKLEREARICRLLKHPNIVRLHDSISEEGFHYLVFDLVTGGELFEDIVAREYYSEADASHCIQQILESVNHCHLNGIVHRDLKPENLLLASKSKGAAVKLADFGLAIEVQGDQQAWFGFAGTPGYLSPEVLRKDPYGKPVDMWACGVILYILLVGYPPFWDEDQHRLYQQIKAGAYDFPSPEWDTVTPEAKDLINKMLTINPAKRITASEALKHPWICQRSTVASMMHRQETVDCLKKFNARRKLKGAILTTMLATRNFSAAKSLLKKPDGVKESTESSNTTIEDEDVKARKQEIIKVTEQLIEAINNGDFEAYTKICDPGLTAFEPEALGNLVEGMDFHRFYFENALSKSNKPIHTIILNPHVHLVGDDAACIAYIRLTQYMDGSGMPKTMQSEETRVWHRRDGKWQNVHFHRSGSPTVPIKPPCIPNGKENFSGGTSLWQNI
Chain of AURKC (human) (Q9UQB9 whole entry, looked up): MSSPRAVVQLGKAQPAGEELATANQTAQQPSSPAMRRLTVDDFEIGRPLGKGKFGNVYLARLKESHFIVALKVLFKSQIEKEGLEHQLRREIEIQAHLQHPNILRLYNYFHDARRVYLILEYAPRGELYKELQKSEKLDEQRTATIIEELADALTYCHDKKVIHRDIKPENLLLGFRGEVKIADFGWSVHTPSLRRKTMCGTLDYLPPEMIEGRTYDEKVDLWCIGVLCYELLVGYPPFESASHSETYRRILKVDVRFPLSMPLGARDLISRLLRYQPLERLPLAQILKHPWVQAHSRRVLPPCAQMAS
Chain of DYRK1B (human) (Q9Y463 whole entry, looked up): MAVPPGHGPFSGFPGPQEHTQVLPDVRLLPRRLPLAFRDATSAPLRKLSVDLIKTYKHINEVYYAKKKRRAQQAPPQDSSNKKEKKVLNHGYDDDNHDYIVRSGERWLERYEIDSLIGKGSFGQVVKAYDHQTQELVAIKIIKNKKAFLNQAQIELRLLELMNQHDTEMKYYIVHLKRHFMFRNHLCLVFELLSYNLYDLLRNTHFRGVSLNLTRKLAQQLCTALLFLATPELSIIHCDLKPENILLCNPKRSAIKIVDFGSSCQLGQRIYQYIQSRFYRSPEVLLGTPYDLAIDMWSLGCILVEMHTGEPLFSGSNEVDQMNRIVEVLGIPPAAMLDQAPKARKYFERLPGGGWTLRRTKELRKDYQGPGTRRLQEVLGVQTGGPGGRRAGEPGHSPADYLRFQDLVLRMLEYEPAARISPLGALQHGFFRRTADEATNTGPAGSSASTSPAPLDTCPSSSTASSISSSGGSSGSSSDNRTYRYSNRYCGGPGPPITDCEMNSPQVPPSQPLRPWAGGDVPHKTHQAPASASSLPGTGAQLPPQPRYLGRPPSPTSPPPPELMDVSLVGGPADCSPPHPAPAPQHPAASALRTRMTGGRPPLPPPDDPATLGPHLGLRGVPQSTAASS
Chain of TNIK (human) (Q9UKE5 whole entry, looked up): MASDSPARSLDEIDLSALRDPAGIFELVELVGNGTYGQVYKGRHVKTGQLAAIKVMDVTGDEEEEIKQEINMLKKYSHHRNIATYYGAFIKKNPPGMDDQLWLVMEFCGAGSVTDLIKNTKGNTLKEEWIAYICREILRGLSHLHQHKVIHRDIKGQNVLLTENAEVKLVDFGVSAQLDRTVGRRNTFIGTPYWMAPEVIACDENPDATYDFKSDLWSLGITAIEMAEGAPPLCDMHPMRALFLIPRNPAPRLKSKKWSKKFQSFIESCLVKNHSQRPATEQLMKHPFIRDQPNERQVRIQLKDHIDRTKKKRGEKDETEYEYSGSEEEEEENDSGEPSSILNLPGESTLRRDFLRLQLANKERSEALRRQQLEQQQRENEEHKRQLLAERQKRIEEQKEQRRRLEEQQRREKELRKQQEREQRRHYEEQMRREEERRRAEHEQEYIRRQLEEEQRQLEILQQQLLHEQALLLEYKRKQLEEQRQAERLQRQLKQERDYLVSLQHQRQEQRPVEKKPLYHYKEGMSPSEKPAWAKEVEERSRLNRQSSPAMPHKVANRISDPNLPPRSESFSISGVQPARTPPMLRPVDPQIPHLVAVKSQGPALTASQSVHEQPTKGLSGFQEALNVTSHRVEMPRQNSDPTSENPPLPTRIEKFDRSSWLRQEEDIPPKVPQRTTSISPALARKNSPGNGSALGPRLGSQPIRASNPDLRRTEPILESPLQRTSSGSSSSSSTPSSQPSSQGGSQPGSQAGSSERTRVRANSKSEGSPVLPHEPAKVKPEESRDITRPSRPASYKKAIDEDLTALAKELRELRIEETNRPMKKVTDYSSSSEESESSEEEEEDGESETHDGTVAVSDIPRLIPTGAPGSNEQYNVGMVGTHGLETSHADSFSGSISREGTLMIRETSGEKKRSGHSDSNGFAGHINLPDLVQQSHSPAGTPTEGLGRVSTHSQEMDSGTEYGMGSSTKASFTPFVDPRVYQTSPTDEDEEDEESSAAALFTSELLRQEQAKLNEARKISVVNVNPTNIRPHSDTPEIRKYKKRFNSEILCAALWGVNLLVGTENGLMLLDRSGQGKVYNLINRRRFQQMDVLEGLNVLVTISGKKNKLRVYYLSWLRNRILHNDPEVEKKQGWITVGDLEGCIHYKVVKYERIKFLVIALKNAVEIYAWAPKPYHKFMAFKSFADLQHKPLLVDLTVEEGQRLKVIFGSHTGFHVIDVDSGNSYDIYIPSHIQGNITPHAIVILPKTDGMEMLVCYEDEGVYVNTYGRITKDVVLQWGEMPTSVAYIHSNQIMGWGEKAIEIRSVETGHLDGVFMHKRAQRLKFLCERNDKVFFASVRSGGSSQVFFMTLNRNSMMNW
Chain of MAPK11 (human) (Q15759 whole entry, looked up): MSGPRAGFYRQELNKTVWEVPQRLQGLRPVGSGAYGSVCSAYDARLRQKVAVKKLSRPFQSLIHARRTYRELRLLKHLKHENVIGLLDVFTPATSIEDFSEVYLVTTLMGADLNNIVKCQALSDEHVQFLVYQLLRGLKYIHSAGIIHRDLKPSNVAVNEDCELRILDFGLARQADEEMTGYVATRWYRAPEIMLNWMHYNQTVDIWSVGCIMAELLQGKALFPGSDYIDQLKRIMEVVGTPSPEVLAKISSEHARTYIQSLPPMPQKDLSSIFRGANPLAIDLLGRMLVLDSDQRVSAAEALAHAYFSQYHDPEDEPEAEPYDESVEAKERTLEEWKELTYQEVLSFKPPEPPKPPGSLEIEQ
Chain of TSSK3 (human) (Q96PN8 whole entry, looked up): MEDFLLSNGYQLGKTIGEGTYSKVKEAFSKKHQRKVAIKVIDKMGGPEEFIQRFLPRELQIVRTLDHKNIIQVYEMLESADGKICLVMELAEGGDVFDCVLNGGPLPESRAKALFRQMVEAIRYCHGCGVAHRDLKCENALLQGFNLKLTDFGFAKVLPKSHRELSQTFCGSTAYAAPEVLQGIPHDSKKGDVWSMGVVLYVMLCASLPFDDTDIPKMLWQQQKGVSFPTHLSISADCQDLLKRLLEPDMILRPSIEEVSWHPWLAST
Chain of EEF2K (human) (O00418 whole entry, looked up): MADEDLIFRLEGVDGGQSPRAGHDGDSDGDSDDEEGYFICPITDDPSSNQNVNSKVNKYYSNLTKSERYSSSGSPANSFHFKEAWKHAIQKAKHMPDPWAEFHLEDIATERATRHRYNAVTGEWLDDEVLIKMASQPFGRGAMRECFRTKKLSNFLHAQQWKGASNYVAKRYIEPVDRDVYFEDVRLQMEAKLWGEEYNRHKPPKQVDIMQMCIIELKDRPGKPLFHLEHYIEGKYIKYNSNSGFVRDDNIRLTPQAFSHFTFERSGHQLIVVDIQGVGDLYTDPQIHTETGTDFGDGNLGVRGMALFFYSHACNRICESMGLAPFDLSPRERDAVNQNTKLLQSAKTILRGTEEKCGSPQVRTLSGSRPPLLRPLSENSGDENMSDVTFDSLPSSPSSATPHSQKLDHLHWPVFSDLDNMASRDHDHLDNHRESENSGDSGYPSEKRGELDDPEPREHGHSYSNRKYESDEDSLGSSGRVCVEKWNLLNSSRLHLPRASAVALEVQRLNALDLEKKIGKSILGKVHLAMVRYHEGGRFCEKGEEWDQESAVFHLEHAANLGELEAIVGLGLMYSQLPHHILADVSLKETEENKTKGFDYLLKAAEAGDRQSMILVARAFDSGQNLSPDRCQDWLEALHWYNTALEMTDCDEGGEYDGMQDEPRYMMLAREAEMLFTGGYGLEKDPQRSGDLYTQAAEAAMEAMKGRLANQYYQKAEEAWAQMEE

CNC(=O)c1cc(Oc2ccc(NC(=O)Nc3ccc(Cl)c(C(F)(F)F)c3)cc2)ccn1
inhibition (AURKC (human); compound 0.02 µM): 0% | inhibition (AURKC (human); compound 0.2 µM): 11.8% | inhibition (CAMK1 (human); compound 0.02 µM): -4.6% | inhibition (CAMK1 (human); compound 0.2 µM): -2.2% | inhibition (CAMK2D (human); compound 0.2 µM): 5.2% | inhibition (CDC7 (human); compound 0.02 µM): -4.3% | inhibition (CDC7 (human); compound 0.2 µM): -4.2% | inhibition (CDK9 (human); compound 0.02 µM): -7.5% | inhibition (CDK9 (human); compound 0.2 µM): -6.7% | inhibition (DYRK1B (human); compound 0.02 µM): -6.7% | inhibition (DYRK1B (human); compound 0.2 µM): 0.6% | inhibition (EEF2K (human); compound 0.02 µM): -3.9% | inhibition (EEF2K (human); compound 0.2 µM): 0% | inhibition (EPHA5 (human); compound 0.02 µM): 6.1% | inhibition (EPHA5 (human); compound 0.2 µM): 38.8% | inhibition (FGFR4 (human); compound 0.02 µM): -7.4% | inhibition (FGFR4 (human); compound 0.2 µM): 8.8% | inhibition (GSG2 (human); compound 0.02 µM): -3% | inhibition (GSG2 (human); compound 0.2 µM): -1.8% | inhibition (IRAK1 (human); compound 0.02 µM): -4% | inhibition (IRAK1 (human); compound 0.2 µM): -7.2% | inhibition (JAK3 JH1 JH2 (human); compound 0.02 µM): -3.6% | inhibition (JAK3 JH1 JH2 (human); compound 0.2 µM): 8.1% | inhibition (MAPK11 (human); compound 0.02 µM): 10.4% | inhibition (MAPK11 (human); compound 0.2 µM): 62.3% | inhibition (MARK3 (human); compound 0.02 µM): -5.5% | inhibition (MARK3 (human); compound 0.2 µM): 5.7% | inhibition (NEK1 (human); compound 0.02 µM): -5.2% | inhibition (NEK1 (human); compound 0.2 µM): -6.3% | inhibition (PAK6 (human); compound 0.02 µM): -6.6% | inhibition (PAK6 (human); compound 0.2 µM): -32.1% | inhibition (PGK1 (human); compound 0.02 µM): -6.2% | inhibition (PGK1 (human); compound 0.2 µM): 1.9% | inhibition (PHKG2 (human); compound 0.02 µM): -3.1% | inhibition (PHKG2 (human); compound 0.2 µM): -2.3% | inhibition (PIM2 (human); compound 0.02 µM): -0.2% | inhibition (PIM2 (human); compound 0.2 µM): 1.2% | inhibition (PIM3 (human); compound 0.02 µM): -1.8% | inhibition (PIM3 (human); compound 0.2 µM): -4.2% | inhibition (PRKAA1 (human); compound 0.02 µM): -5.7% | inhibition (PRKAA1 (human); compound 0.2 µM): 10.7% | inhibition (PRKACG (human); compound 0.02 µM): -6.6% | inhibition (PRKACG (human); compound 0.2 µM): -6% | inhibition (PRKCE (human); compound 0.02 µM): 0.4% | inhibition (PRKCE (human); compound 0.2 µM): 6% | inhibition (PRKCQ (human); compound 0.02 µM): 1.3% | inhibition (PRKCQ (human); compound 0.2 µM): 14.1% | inhibition (PRKD1 (human); compound 0.02 µM): -1.1% | inhibition (PRKD1 (human); compound 0.2 µM): 2.7% | inhibition (RPS6KA6 KD1 KD2 (human); compound 0.02 µM): -2% | inhibition (RPS6KA6 KD1 KD2 (human); compound 0.2 µM): -6.2% | inhibition (RPS6KB1 (human); compound 0.02 µM): 8.1% | inhibition (RPS6KB1 (human); compound 0.2 µM): 48.1% | inhibition (STK38 (human); compound 0.02 µM): -2.5% | inhibition (STK38 (human); compound 0.2 µM): 4.8% | inhibition (TNIK (human); compound 0.02 µM): -6.2% | inhibition (TNIK (human); compound 0.2 µM): 0.8% | inhibition (TSSK3 (human); compound 0.02 µM): 2.7% | inhibition (TSSK3 (human); compound 0.2 µM): 8.3% | inhibition (TYK2 JH1 JH2 (human); compound 0.02 µM): -2.4% | inhibition (TYRO3 (human); compound 0.02 µM): -9.4% | inhibition (TYRO3 (human); compound 0.2 µM): 3.7%

CCN(CC)CCNC(=O)c1c(C)[nH]c(/C=C2\C(=O)Nc3ccc(F)cc32)c1C
inhibition (AURKC (human); compound 0.2 µM): 23.2% | inhibition (AURKC (human); compound 4.0 µM): 87.1% | inhibition (CAMK1 (human); compound 0.2 µM): 7.3% | inhibition (CAMK1 (human); compound 4.0 µM): 61.2% | inhibition (CAMK2D (human); compound 0.2 µM): 88.8% | inhibition (CAMK2D (human); compound 4.0 µM): 100% | inhibition (CDC7 (human); compound 0.2 µM): 0.9% | inhibition (CDC7 (human); compound 4.0 µM): 4.9% | inhibition (CDK9 (human); compound 0.2 µM): -0.1% | inhibition (CDK9 (human); compound 4.0 µM): 47.5% | inhibition (DYRK1B (human); compound 4.0 µM): 74.7% | inhibition (EEF2K (human); compound 0.2 µM): 2.7% | inhibition (EEF2K (human); compound 4.0 µM): 4% | inhibition (EPHA5 (human); compound 0.2 µM): 6.7% | inhibition (EPHA5 (human); compound 4.0 µM): 50.8% | inhibition (FGFR2 (human); compound 0.2 µM): 71.3% | inhibition (FGFR2 (human); compound 4.0 µM): 99.7% | inhibition (FGFR4 (human); compound 0.2 µM): 10.3% | inhibition (FGFR4 (human); compound 4.0 µM): 62.6% | inhibition (GSG2 (human); compound 0.2 µM): 39.2% | inhibition (GSG2 (human); compound 4.0 µM): 89.7% | inhibition (IRAK1 (human); compound 0.2 µM): 68.5% | inhibition (IRAK1 (human); compound 4.0 µM): 84% | inhibition (JAK3 JH1 JH2 (human); compound 0.2 µM): 37.5% | inhibition (JAK3 JH1 JH2 (human); compound 4.0 µM): 96% | inhibition (MAPK11 (human); compound 0.2 µM): -1.4% | inhibition (MAPK11 (human); compound 4.0 µM): -3.1% | inhibition (MARK3 (human); compound 0.2 µM): 77.4% | inhibition (MARK3 (human); compound 4.0 µM): 99% | inhibition (NEK1 (human); compound 0.2 µM): -2.4% | inhibition (NEK1 (human); compound 4.0 µM): -8.5% | inhibition (PAK6 (human); compound 0.2 µM): 6% | inhibition (PAK6 (human); compound 4.0 µM): 22.2% | inhibition (PGK1 (human); compound 0.2 µM): 12.5% | inhibition (PGK1 (human); compound 4.0 µM): 74.1% | inhibition (PHKG2 (human); compound 0.2 µM): 85.2% | inhibition (PHKG2 (human); compound 4.0 µM): 99% | inhibition (PIM2 (human); compound 0.2 µM): 2.5% | inhibition (PIM2 (human); compound 4.0 µM): 12.1% | inhibition (PIM3 (human); compound 0.2 µM): 3.1% | inhibition (PIM3 (human); compound 4.0 µM): 42.9% | inhibition (PRKAA1 (human); compound 0.2 µM): 62.6% | inhibition (PRKAA1 (human); compound 4.0 µM): 98.7% | inhibition (PRKACG (human); compound 0.2 µM): -4.4% | inhibition (PRKACG (human); compound 4.0 µM): 28.9% | inhibition (PRKCE (human); compound 0.2 µM): 4.4% | inhibition (PRKCE (human); compound 4.0 µM): 11% | inhibition (PRKCQ (human); compound 0.2 µM): 1.3% | inhibition (PRKCQ (human); compound 4.0 µM): 31.2% | inhibition (PRKD1 (human); compound 0.2 µM): 73.6% | inhibition (PRKD1 (human); compound 4.0 µM): 99% | inhibition (RPS6KA6 KD1 KD2 (human); compound 0.2 µM): 80.7% | inhibition (RPS6KA6 KD1 KD2 (human); compound 4.0 µM): 97.8% | inhibition (RPS6KB1 (human); compound 0.2 µM): 66.4% | inhibition (RPS6KB1 (human); compound 4.0 µM): 96.6% | inhibition (STK38 (human); compound 0.2 µM): 8.9% | inhibition (STK38 (human); compound 4.0 µM): 45.1% | inhibition (TNIK (human); compound 0.2 µM): 87.5% | inhibition (TNIK (human); compound 4.0 µM): 98.1% | inhibition (TSSK3 (human); compound 0.2 µM): 2.6% | inhibition (TSSK3 (human); compound 4.0 µM): -1.3% | inhibition (TYK2 JH1 JH2 (human); compound 0.2 µM): 21.6% | inhibition (TYK2 JH1 JH2 (human); compound 4.0 µM): 78.3% | inhibition (TYRO3 (human); compound 0.2 µM): 82.2% | inhibition (TYRO3 (human); compound 4.0 µM): 100%
